Reference: patent US5399565A, “Pyrazolidinone CCK and gastrin antagonists and pharmaceutical formulations therof” (priority 1993, dated 1995)

Tests used:
brain CCK receptor = molecular target: T1, brain CCK receptor (Mus musculus, UniProt P56481); assay: CCK receptor binding, mouse brain membranes (125I-CCK-8 sulfate); details: for IC50: mouse brain membranes, read-out: Brain IC50; for inhibition at 1 µM / inhibition at 10 µM: read-out: Brain Percent Inhibition
T1 construct: from tissue; host or cells: forebrain membranes of male CF-1 mice
T1 sequence (P56481 1-453): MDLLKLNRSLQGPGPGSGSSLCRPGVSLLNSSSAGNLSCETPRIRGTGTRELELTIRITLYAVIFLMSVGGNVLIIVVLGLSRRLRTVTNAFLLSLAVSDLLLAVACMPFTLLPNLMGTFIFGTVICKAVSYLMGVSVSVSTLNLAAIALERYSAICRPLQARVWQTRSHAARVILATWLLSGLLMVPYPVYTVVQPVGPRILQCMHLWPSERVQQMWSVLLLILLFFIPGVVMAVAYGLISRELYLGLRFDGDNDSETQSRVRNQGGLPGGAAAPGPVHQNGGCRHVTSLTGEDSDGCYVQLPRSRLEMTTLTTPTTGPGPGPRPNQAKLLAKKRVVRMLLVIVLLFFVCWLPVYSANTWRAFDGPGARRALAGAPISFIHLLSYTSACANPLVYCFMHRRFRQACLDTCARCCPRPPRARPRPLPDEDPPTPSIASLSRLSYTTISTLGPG
Protocol: Brain CCK receptor binding was performed using mouse brain membranes according to the method of Chang and Lotti (Proc. Natl. Acad. Sci. 83: 4923-4926, 1986). Male CF-1 mice, 23-25 g were sacrificed by cervical dislocation, the forebrain removed and placed in ice cold 50 mM Tris buffer, pH 7.4. The tissue was homogenized in 100 volumes of the Tris buffer with a Brinkman Polytron or Tekmar Tissumizer and then centrifuged at 40,000 g for 10 min. Pellets were resuspended in Tris buffer, centrifuged as above and then resuspended in 100 volumes of assay buffer, pH 6.5 (20 mM N-2-hydroxyethyl-piperazine-N'-2-ethane sulfonic acid (HEPES), 1 mM ethylene glycol his (2-aminoethyl ether-N,N,N',N'-tetraacetic acid) (EGTA), 5 mM MgCl2, 130 mM NaCl, and 0.25 mg/ml bacitracin). The binding assay consisted of 50 μL of compound (or buffer for total binding), 50 μL of ^125 I-CCK-8 sulfate (20 pM) (Amersham IM- 159), 200 μL of assay buffer and 200 μL of homogenate (80-120 μg protein). The samples were incubated at room temperature (25°) for 2 hours, and they were then filtered through GF/B glass fiber filters (soaked in wash buffer for 2 hours before use) using a 48 well Brandel cell harvester designed for receptor binding. The filters were washed twice with 3 ml of 50 mM Tris buffer, pH 7.4, containing 0.01% BSA and then counted for radioactivity in plastic tubes with a Micromedic 10/600 automatic gamma counter.
Compounds were dissolved in dimethyl sulfoxide (DMSO) at a concentration of 10 mM and then further diluted with assay buffer. The concentration of DMSO in the incubation was 0.1% or less and had no effect on the assay at that level. IC-50 values of displacement curves were determined using 7 concentrations of compound and were calculated using the ALLFIT computer program of DeLean, Munson and Rodbard (Am. J. Physiol. 235: E97-E102, 1978). Non-specific binding was determined as the displacement of the radioligand by 100 nM CCK-8 sulfate.

[1] = molecular target: T2, peripheral type CCK receptors in rat pancreas (Rattus norvegicus, UniProt P30551); assay: Binding to peripheral type CCK receptors in rat pancreas (3H-L-364,718); details: at 10 μM; read-out: Pancreas Percent Inhibition
T2 construct: Pancreas was obtained from male Sprague-Dawley rats; from tissue; host or cells: pancreas membranes of male Sprague-Dawley rats
T2 sequence (P30551 1-444): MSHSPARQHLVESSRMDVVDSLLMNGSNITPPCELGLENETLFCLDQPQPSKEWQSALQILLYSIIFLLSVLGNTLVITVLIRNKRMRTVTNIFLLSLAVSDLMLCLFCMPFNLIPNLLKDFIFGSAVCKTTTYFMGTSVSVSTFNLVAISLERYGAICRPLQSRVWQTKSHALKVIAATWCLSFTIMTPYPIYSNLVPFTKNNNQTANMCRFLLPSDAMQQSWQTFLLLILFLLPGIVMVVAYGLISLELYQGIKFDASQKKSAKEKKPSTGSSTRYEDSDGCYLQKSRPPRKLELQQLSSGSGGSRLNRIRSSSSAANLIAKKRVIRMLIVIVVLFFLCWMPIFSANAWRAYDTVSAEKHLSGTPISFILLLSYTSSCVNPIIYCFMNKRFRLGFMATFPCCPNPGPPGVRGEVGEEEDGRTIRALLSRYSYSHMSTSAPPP
Protocol: Binding to peripheral type CCK receptors in rat pancreas was done according to the method of Chang et al. (Mol. Pharmacol. 30: 212-217, 1986) using ^3 H-L364, 718. Pancreas was obtained from male Sprague-Dawley rats, 150-200 g, after decapitation, and dissected free from adipose and connective tissue. The tissue was homogenized in 30 volumes of 50 mM Tris buffer, pH 7.4 and centrifuged at 40,000 g for 10 min. The tissue pellet was washed by resuspension and centrifugation as described above. The final pellet was suspended in 500 volumes of assay buffer (50 mM Tris buffer, pH 7.4, 5 mM MgCl2, 0.14 mg/ml bacitracin, and 5 mM dithiothreitol) to give a protein concentration of 30-60 μg/200 μl . Reagent volumes for the assay were the same as those used for CCK binding to brain membranes. Tritium labeled L-364,718 (Dupont NEN, NET-971) was used as the ligand at a concentration of 0.4-0.6 nM. The samples were incubated 1 hour at room temperature and then filtered as described for the CCK-brain receptor. Scintillation cocktail was added to the filters which were counted for radioactivity using a Micromedic Taurus automatic liquid scintillation counter.
Compound samples were prepared and IC-50 values were determined as described for the CCK-brain experiments. Non-specific binding was that amount left bound to the filters after adding 100 nM L-364,718.

Row | SMILES | IC50 (brain CCK receptor) | inhibition at 10 µM [1] | inhibition at 1 µM (brain CCK receptor) | inhibition at 10 µM (brain CCK receptor)
1 | O=C1NN(C(=O)Nc2cccc(C(F)(F)F)c2)[C@@H](c2ccccc2)[C@@H]1c1ccccc1 (relative stereo) [Example 39] | 330 nM | 52% |  | 
2 | CCc1ccc(NC(=O)N2NC(=O)[C@@H](c3ccccc3)[C@@H]2c2ccccc2)cc1 (relative stereo) [Example 26] | 75 nM | 47% |  | 
3 | O=C1NN(C(=O)Nc2ccccc2C(F)(F)F)[C@H](c2ccccc2)[C@H]1c1ccccc1 (relative stereo) [Example 53] | 1200 nM | 17% |  | 
4 | O=C1CC(c2ccc(-c3ccccc3)cc2)N(C(=O)Nc2cccc(Cl)c2Cl)N1 (stereo not drawn) [Example 68] | 4300 nM | 70% |  | 
5 | O=C1NN(C(=O)Nc2ccc(F)cc2F)[C@H](c2ccccc2)[C@H]1c1ccccc1 (relative stereo) [Example 56] |  | 15% | 25% | 
6 | COc1cccc(NC(=O)N2NC(=O)[C@H](c3ccccc3)[C@H]2c2ccccc2)c1 (relative stereo) [Example 42] | 780 nM | 37% |  | 
7 | O=C1NN(C(=O)Nc2cccc([N+](=O)[O-])c2)[C@H](c2ccccc2)[C@H]1c1ccccc1 (relative stereo) [Example 40] | 750 nM | 38% |  | 
8 | CCCc1ccc(NC(=O)N2NC(=O)[C@@H](c3ccccc3)[C@@H]2c2ccccc2)cc1 (relative stereo) [Example 27] | 230 nM | 60% |  | 
9 | O=C1NN(C(=O)NC2CCc3ccccc3C2)[C@@H](c2ccccc2)[C@@H]1c1ccccc1 (relative stereo) [Example 4, 1-[(2-[1,2,3,4-Tetrahydronaphthyl])aminocarbonyl]-4,5-diphenyl-3-pyrazolidinone] | 390 nM | 78% |  | 
10 | O=C1NN(C(=O)Nc2ccc(F)c(Cl)c2)[C@H](c2ccccc2)[C@H]1c1ccccc1 (relative stereo) [Example 47] | 390 nM | 51% |  | 
11 | CCCCC1C(c2ccccc2)C(=O)NN1C(=O)Nc1ccc(C(F)(F)F)cc1 (stereo not drawn) [Example 71] | 1200 nM | 39% |  | 
12 | O=C1NN(C(=O)Cc2ccc(C(F)(F)F)cc2)[C@H](c2ccccc2)[C@H]1c1ccccc1 (relative stereo) [Example 77] |  | 20% |  | 56%
13 | O=C1NN(C(=O)Nc2ccc(Cl)cc2)[C@@H](c2ccccc2)[C@@H]1c1ccccc1 (relative stereo) [Example 18] | 93 nM | 22% |  | 
14 | O=C1NN(C(=O)Nc2ccc(Oc3ccccc3)cc2)[C@@H](c2ccccc2)[C@@H]1c1ccccc1 (relative stereo) [Example 37] |  | 75% | 82% | 

The next lines start with the values.

Row | IC50 (brain CCK receptor) | inhibition at 10 µM [1] | inhibition at 1 µM (brain CCK receptor) | inhibition at 10 µM (brain CCK receptor) | SMILES
15 |  | 12% | 37% |  | O=C(Nc1ccc(C(F)(F)F)cc1)N1N[C@@H](c2ccccc2)[C@H](c2ccccc2)C1=O (relative stereo) [Example 83]
16 |  | 59% |  | 95% | O=C1NN(C(=O)Sc2ccc(Br)cc2)[C@@H](c2ccccc2)[C@@H]1c1ccccc1 (relative stereo) [Example 81]
17 |  | 63% | 45% |  | O=C1NN(C(=O)Nc2cccc3ccccc23)[C@@H](c2ccccc2)[C@@H]1c1ccccc1 (relative stereo) [Example 90]
18 | 490 nM | 39% |  |  | COc1ccc(C2C(=O)NN(C(=O)Nc3ccc(Br)cc3)C2c2ccccc2)cc1 (stereo not drawn) [Example 128]
19 |  | 26% |  | 70% | O=C1NN(c2nc3ccccc3s2)[C@@H](c2ccccc2)[C@@H]1c1ccccc1 (relative stereo) [Example 84]
20 | 2200 nM | 78% |  |  | O=C1NN(C(=O)NCc2ccc(Cl)cc2)[C@@H](c2ccccc2)[C@@H]1c1ccccc1 (relative stereo) [Example 100]
21 |  | 21% | 25% |  | CN(C)c1ccc(C2C(c3ccccc3)C(=O)NN2C(=O)Nc2ccc(C(F)(F)F)cc2)cc1 (stereo not drawn) [Example 113]
